Reference: publication PMC3547291 (Bioorganic & medicinal chemistry letters, 2012)
pIC50: −log10 of the molar value.

Legend:
PDGFRβ = PDGFRβ (Homo sapiens, UniProt P09619); experiment: Kinase inhibition functional assay; assay type: biochemical
FLT3 = target: T1, FLT3 (Homo sapiens, UniProt P36888); experiment: Kinase inhibition functional assay; assay type: biochemical
T1 sequence (P36888 27-993): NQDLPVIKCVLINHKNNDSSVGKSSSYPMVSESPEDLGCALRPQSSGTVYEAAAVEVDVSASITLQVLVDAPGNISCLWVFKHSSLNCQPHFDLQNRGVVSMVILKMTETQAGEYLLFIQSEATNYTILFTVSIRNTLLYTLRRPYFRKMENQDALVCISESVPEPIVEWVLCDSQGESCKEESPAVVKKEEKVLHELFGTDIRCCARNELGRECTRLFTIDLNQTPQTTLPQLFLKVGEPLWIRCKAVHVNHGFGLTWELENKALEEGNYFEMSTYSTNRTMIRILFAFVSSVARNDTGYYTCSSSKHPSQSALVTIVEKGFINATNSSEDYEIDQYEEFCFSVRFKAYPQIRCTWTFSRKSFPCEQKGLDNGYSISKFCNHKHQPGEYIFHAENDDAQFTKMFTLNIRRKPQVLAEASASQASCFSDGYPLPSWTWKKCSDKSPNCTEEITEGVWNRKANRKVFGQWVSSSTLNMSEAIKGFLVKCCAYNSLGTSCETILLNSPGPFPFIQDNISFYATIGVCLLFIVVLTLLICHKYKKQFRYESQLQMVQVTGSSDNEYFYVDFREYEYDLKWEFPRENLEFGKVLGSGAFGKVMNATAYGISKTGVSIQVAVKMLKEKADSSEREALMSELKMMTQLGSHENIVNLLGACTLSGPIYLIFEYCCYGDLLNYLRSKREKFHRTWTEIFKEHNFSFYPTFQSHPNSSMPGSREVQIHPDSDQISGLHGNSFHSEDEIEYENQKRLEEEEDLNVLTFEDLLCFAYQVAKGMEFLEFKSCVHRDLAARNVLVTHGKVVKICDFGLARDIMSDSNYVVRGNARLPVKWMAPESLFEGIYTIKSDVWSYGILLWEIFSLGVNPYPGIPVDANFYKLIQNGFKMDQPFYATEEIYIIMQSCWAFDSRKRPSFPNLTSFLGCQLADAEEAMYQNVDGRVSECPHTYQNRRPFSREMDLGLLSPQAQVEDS

PDGFRβ, sequence (P09619 33-1106): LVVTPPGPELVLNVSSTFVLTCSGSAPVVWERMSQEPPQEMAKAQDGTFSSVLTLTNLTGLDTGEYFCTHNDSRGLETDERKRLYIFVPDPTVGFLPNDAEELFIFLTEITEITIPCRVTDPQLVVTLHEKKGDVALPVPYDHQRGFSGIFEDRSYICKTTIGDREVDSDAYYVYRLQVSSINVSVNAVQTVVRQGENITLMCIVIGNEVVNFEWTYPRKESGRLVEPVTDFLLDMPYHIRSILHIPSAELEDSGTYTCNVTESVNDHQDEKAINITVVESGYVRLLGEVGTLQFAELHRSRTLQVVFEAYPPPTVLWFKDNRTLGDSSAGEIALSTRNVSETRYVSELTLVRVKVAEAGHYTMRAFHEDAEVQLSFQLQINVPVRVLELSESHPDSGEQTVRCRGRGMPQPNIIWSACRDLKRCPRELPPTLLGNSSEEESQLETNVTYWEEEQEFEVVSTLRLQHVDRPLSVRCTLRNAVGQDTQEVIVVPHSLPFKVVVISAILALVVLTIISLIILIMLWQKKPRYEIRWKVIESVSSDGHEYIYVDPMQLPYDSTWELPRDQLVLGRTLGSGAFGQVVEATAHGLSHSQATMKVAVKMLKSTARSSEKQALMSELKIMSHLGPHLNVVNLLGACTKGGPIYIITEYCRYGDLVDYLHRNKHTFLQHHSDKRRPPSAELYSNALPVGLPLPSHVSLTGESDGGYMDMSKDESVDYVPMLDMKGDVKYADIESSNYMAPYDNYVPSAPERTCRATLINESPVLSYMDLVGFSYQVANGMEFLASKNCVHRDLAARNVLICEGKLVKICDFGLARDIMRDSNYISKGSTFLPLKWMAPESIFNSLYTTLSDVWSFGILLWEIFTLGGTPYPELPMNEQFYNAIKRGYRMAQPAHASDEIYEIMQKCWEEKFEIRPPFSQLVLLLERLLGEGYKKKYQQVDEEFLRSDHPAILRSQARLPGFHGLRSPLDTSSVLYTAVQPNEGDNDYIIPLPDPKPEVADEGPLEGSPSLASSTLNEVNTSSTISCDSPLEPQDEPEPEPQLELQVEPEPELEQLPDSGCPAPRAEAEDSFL

Row | pIC50 (PDGFRβ) | pIC50 (FLT3) | SMILES
1 | < 4.30 | – | Cc1cn(-c2cc(F)cc(NC(=O)c3ccc(C)c(Nc4nccc(-c5cccnc5)n4)c3)c2)cn1 [Compound 2b]
2 | – | 6.93 | Cc1cc(NC(=O)c2ccc(C)c(Nc3nccc(-c4cccnc4)n3)c2)cc(-n2cnc(C)c2)c1 [Compound 2c]
